Laboratory results taken from patent US6669946B2, “METHOD FOR IDENTIFYING INDIVIDUALS SUFFERING FROM A CELLULAR ABNORMALITY SOME OF WHOSE ABNORMAL CELLS PRESENT COMPLEXES OF HUMAN LEUKOCYTE ANTIGEN TYROSINASE DERIVED PEPTIDES, AND METHODS FOR TREATING SAID INDIVIDUALS” (Ludwig Institute for Cancer Research, priority 1992, dated 2003).
Entries after “also recorded” stand apart in the source; their conditions may differ.

B1: second gene fragment: fragment from base 1 to base 1092 of SEQ ID NO: 1, not encoding SEQ ID NO: 2 (nucleic acid)
DNA: GACCTTGTGAGGACTAGAGGAAGAATGCTCCTGGCTGTTTTGTACTGCCTGCTGTGGAGTTTCCAGACCTCCGCTGGCCATTTCCCTAGAGCCTGTGTCTCCTCTAAGAACCTGATGGAGAAGGAATGCTGTCCACCGTGGAGCGGGGACAGGAGTCCCTGTGGCCAGCTTTCAGGCAGAGGTTCCTGTCAGAATATCCTTCTGTCCAATGCACCACTTGGGCCTCAATTTCCCTTCACAGGGGTGGATGACCGGGAGTCGTGGCCTTCCGTCTTTTATAATAGGACCTGCCAGTGCTCTGGCAACTTCATGGGATTCAACTGTGGAAACTGCAAGTTTGGCTTTTGGGGACCAAACTGCACAGAGAGACGACTCTTGGTGAGAAGAAACATCTTCGATTTGAGTGCCCCAGAGAAGGACAAATTTTTTGCCTACCTCACTTTAGCAAAGCATACCATCAGCTCAGACTATGTCATCCCCATAGGGACCTATGGCCAAATGAAAAATGGATCAACACCCATGTTTAACGACATCAATATTTATGACCTCTTTGTCTGGATGCATTATTATGTGTCAATGGATGCACTGCTTGGGGGATCTGAAATCTGGAGAGACATTGATTTTGCCCATGAAGCACCAGCTTTTCTGCCTTGGCATAGACTCTTCTTGTTGCGGTGGGAACAAGAAATCCAGAAGCTGACAGGAGATGAAAACTTCACTATTCCATATTGGGACTGGCGGGATGCAGAAAAGTGTGACATTTGCACAGATGAGTACATGGGAGGTCAGCACCCCACAAATCCTAACTTACTCAGCCCAGCATCATTCTTCTCCTCTTGGCAGATTGTCTGTAGCCGATTGGAGGAGTACAACAGCCATCAGTCTTTATGCAATGGAACGCCCGAGGGACCTTTACGGCGTAATCCTGGAAACCATGACAAATCCAGAACCCCAAGGCTCCCCTCTTCAGCTGATGTAGAATTTTGCCTGAGTTTGACCCAATATGAATCTGGTTCCATGGATAAAGCTGCCAATTTCAGCTTTAGAAATACACTGGAAGGATTTGCTAGTCCACTTACTGGGATAGCGGAT
B2: 400 base pair fragment: fragment corresponding to bases 711 to 1152 of SEQ ID NO: 1 (nucleic acid)
DNA: AAACTTCACTATTCCATATTGGGACTGGCGGGATGCAGAAAAGTGTGACATTTGCACAGATGAGTACATGGGAGGTCAGCACCCCACAAATCCTAACTTACTCAGCCCAGCATCATTCTTCTCCTCTTGGCAGATTGTCTGTAGCCGATTGGAGGAGTACAACAGCCATCAGTCTTTATGCAATGGAACGCCCGAGGGACCTTTACGGCGTAATCCTGGAAACCATGACAAATCCAGAACCCCAAGGCTCCCCTCTTCAGCTGATGTAGAATTTTGCCTGAGTTTGACCCAATATGAATCTGGTTCCATGGATAAAGCTGCCAATTTCAGCTTTAGAAATACACTGGAAGGATTTGCTAGTCCACTTACTGGGATAGCGGATGCCTCTCAAAGCAGCATGCACAATGCCTTGCACATCTATATGAATGGAACAATGTCCCAG

Assays:
Assay type in all cases: cell-based, human
[1] = system: cytolytic T cell clone CTL IVSB; assay: 51Cr release assay on peptide-sensitized HLA-A2 presenting cells with CTL IVSB; conditions: SK29-MEL 1.218 and T202LB; peptide 100 μM down to 0.01 μM; E/T ratio 40/1; four hours
Procedure: (§1) Using the methodologies described in examples 1-5, various fragments of the CDNA were cotransfected with a gene for HLA-A2 in COS-7 cells, and TNF release assays were performed. […] The 400 base fragment used corresponded to bases 711 to 1152 of SEQ ID NO: 1. The amino acid sequence for which the fragment codes was deduced, and this sequence was then compared to the information provided by Hunt et al., Science 255: 1261 (1992), and Falk et al., Nature 351: 290 (1991), the disclosures of which are both incorporated by reference in their entirety. These references discuss consensus sequences for HLA-A2 presented peptides. Specifically, Hunt discusses nonapeptides, where either Leu or Ile is always found at the second position, Leu being the “dominant residue”. The ninth residue is described as always being a residue with an aliphatic hydrocarbon side chain. Val is the dominant residue at this position. […]
(§2) The tyrosinase loss variants, cytolytic T cell clones, and peptides were incubated for one hour in a solution containing ^51Cr, at 37° C., either with or without anti HLA-A2 antibody MA2.1, which was used to stabilize empty HLA-A2 molecules. […] After 30 minutes, effector cells were added at an E/T ratio of 40/1 and four hours later, 10λ of supernatant were collected and radioactivity counted.

[2] = system: cytolytic T cell clone CTL 2/9; assay: 51Cr release assay on peptide-sensitized HLA-A2 presenting cells with CTL 2/9; conditions: SK29-MEL 1.218 and T202LB; peptide 100 μM down to 0.01 μM; E/T ratio 40/1; four hours
Procedure: as §1, §2

CTL clone CTL 210/9 = assay: Parallel peptide recognition experiment with CTL 210/9
Procedure: as §1
as §2, with “counted. […]” for “counted.”

CTL IVSB = assay: TNF release by CTL IVSB on COS-7 cells cotransfected with HLA-A2 and cDNA pool or fragment; conditions: COS-7 cotransfected with cDNA fragment and HLA-A2 gene
Procedure: (§3) The amplified plasmids were then transfected into eukaryotic cells. Samples of COS-7 cells were seeded, at 15,000 cells/well into tissue culture flat bottom microwells, in Dulbeco's modified Eagles Medium (“DMEM”) supplemented with 10% fetal calf serum. The cells were incubated overnight at 37° C., medium was removed and then replaced by 30 μl/well of DMEM medium containing 10% Nu serum, 400 μg/ml DEAE-dextran, 100 μM chloroquine, 100 ng of plasmid pcDNA-I/Amp-A2 and 100 ng of DNA of a pool of the cDNA library described supra. Plasmid pcDNA-I/Amp-A2 contains the HLA-A2 gene from SK29-MEL. Following four hours of incubation at 37° C, the medium was removed, and replaced by 50 μl of PBS containing 10% DMSO. This medium was removed after two minutes and replaced by 200 μl of DMEM supplemented with 10% of FCS.
(§4) Following this change in medium, COS cells were incubated for 48 hours at 37° C. Medium was then discarded, and 2000 cells of either of the described CTL clones were added, in 100 μl of Iscove medium containing 10% pooled human serum. When clone 210/9 was used, the medium was supplemented with 25 U/ml of IL-2. Supernatant was removed after 24 hours, and TNF content was determined in an assay on WEHI cells, as described by Traversari et al., Immunogenetics 35: 145-152 (1992), the disclosure of which is incorporated by reference. […]

CTL 210/9 = assay: TNF release by CTL 210/9 on COS-7 cells cotransfected with HLA-A2 and cDNA pool or fragment; conditions: COS-7 cotransfected with cDNA fragment and HLA-A2
Procedure: as §3, §4

Row | Molecule | recognition of complexes of HLA-A2 and peptide by CTL IVSB [1] | recognition of peptide by CTL 2/9 [2] | recognition of complexes of HLA-A2 and peptide by CTL 210/9 (CTL clone CTL 210/9) | TNF release from / recognition by CTL IVSB (CTL IVSB) | recognition by CTL 210/9 of antigen on transfected cells (CTL 210/9)
1 | Tyr Met Asn Gly Thr Met Ser Gln Val (YMNGTMSQV) [SEQ ID NO: 2, tyrosinase derived nonapeptide presented by HLA-A2] | recognition; also recorded: recognized | not | not recognized; also recorded: did not recognize |  | 
2 | B1 |  |  |  | did not | recognized
3 | B2 |  |  |  | provoked TNF release | 
